Source: ChEMBL document CHEMBL3739321, “Multicomponent reaction-based synthesis and biological evaluation of tricyclic heterofused quinolines with multi-trypanosomatid activity” (Eur J Med Chem, 2015)
pIC50: −log10 of the molar value.

Assays:
Leishmania infantum [1] = assay: Potency index, ratio of potassium antimony (III) tartarate hydrate IC50 to compound IC50 for promastigote stage of Leishmania infantum MCAN/ES/92/BCN722; format: functional
L6 = assay: Cytotoxicity against rat L6 cells after 6 days by resazurin staining based fluorescence plate reader assay; format: cell-based
Leishmania infantum [2] = assay: Leishmanicidal activity against promastigote stage of Leishmania infantum MCAN/ES/92/BCN722 after 48 hrs by acid phosphatase based assay; format: functional, organism-based
[3] = Selectivity index, ratio of IC50 for rat L6 cells to IC50 for promastigote stage of Leishmania infantum MCAN/ES/92/BCN722; format: toxicity, cell-based
Trypanosoma brucei = assay: Potency index, ratio of nifurtimox IC50 to compound IC50 for bloodstream form of Trypanosoma brucei 221; format: functional
Trypanosoma cruzi = assay: Potency index, ratio of benzanidazole IC50 to compound IC50 for epimastigote stage of Trypanosoma cruzi MHOM/ES/2203/BCN590; format: functional

## N#Cc1ccc(-c2nc3ccc(Cl)cc3c3c2CCCO3)cc1
Leishmania infantum [1]
  Ratio IC50: <=5

## POTASSIUM ANTIMONYL TARTRATE TRIHYDRATE
L6
  pIC50: 5.49
Leishmania infantum [2]
  pIC50: 4.61
[3]
  Ratio IC50: 0.1

## NCc1ccc(-c2nc3cc(Cl)ccc3c3c2CCCN3)cc1
Trypanosoma brucei
  Ratio IC50: 2
Leishmania infantum [1]
  Ratio IC50: <=5

## NCc1ccc(-c2nc3ccc(Cl)cc3c3c2CCCCN3)cc1
Trypanosoma brucei
  Ratio IC50: 2
Leishmania infantum [1]
  Ratio IC50: <=5

## OCCCc1cc2cc(Cl)ccc2nc1-c1cccs1
Leishmania infantum [1]
  Ratio IC50: <=5

## N#Cc1ccc(-c2nc3cc(Cl)ccc3c3c2CCCN3)cc1
Leishmania infantum [1]
  Ratio IC50: <=5

## Clc1ccc2nc(-c3cccs3)c(CCCN3CCCC3)cc2c1
Leishmania infantum [1]
  Ratio IC50: <=5

## NCc1ccc(-c2nc3ccc(Cl)cc3c3c2CCCN3)cc1
Trypanosoma brucei
  Ratio IC50: 2
Leishmania infantum [1]
  Ratio IC50: <=5

## NCc1ccc(-c2nc3ccc(Cl)cc3c3c2CCN3)cc1
Trypanosoma brucei
  Ratio IC50: 2
Leishmania infantum [1]
  Ratio IC50: <=5

## N#Cc1ccc(-c2nc3ccc(Cl)cc3c3c2CCN3)cc1
Leishmania infantum [1]
  Ratio IC50: <=5

## N#Cc1ccc(-c2nc3ccc(Cl)cc3c3c2CCCN3)cc1
Leishmania infantum [1]
  Ratio IC50: <=5

## OCCCc1cc2cc(Cl)ccc2nc1-c1ccco1
Leishmania infantum [1]
  Ratio IC50: <=5

## NCc1ccc(-c2nc3ccc(Cl)cc3c3c2CCCO3)cc1
Trypanosoma brucei
  Ratio IC50: 2
Leishmania infantum [1]
  Ratio IC50: <=5

## Clc1ccc2nc(-c3ccco3)c3c(c2c1)OCCC3
Leishmania infantum [1]
  Ratio IC50: <=5

## N#CCCc1cc2cc(Cl)ccc2nc1-c1cccs1
Leishmania infantum [1]
  Ratio IC50: <=5

## N#Cc1ccc([C@H]2Nc3ccc(Cl)cc3[C@@H]3OCCC[C@H]23)cc1
Leishmania infantum [1]
  Ratio IC50: <=5

## Clc1ccc2nc(-c3cccs3)c3c(c2c1)OCCC3
Leishmania infantum [1]
  Ratio IC50: <=5

## NCc1ccc(-c2nc3ccc(Cl)cc3c3c2CCCN3Cc2ccccc2)cc1
Trypanosoma brucei
  Ratio IC50: 2
Trypanosoma cruzi
  Ratio IC50: 4
Leishmania infantum [1]
  Ratio IC50: <=5

## N#Cc1ccc(-c2nc3cc(Cl)ccc3cc2CCCN)cc1
Leishmania infantum [1]
  Ratio IC50: <=5

## N#Cc1ccc(-c2nc3ccc(Cl)cc3c3c2CCCCN3)cc1
Leishmania infantum [1]
  Ratio IC50: <=5

## NCc1ccc2nc(-c3ccc(Cl)cc3)c3c(c2c1)N(Cc1ccccc1)CCC3
Trypanosoma brucei
  Ratio IC50: 2
Leishmania infantum [1]
  Ratio IC50: <=5

## CCN(CC)CCCc1cc2cc(Cl)ccc2nc1-c1cccs1
Leishmania infantum [1]
  Ratio IC50: <=5
